# Source: patent US20010036626A1, “Screening assay methods and systems using target pooling” (priority 2000, published 2001)
# What was measured:
# [1] = system: CHO cell line expressing the M1 muscarinic receptor; assay: Pooled two-target microfluidic screen: Fluo-4 green fluorescence response of CHO-M1 cells; format: cell-based; conditions: pooled with THP-1 cells, microfluidic channel, blue excitation light, FIG. 6
# Protocol: (§1) A THP-1 cell line was labeled with Fura red. Both cell lines were pooled and introduced into microfluidic device having the channel structure illustrated in FIG. 5. The cells were flowed through the main channel of the device past a detector that excited the cells with blue excitation light. Green fluorescence was analyzed from the Fluo-4 labeled CHO cells to measure their response to the test compounds. The measurement of the different fluorescence was accomplished simultaneously through the use of appropriate beam splitters and filters in the optical train of the detector. Similarly, red fluorescence was measured from the Fura-red labeled THP-1 cells to measure their response. […] Similarly, different concentrations of UTP were also contacted with the cells flowing through the channel and the results for each system were plotted (FIG. 6C-D).
# THP-1 cell line = assay: Pooled two-target microfluidic screen: Fura red fluorescence response of THP-1 cells; format: cell-based; conditions: pooled with CHO-M1 cells, microfluidic channel, blue excitation light, FIG. 6C-6D
# Protocol: as §1
compound,measurement,setting,value
O=c1ccn([C@@H]2O[C@H](COP(=O)(O)OP(=O)(O)OP(=O)(O)O)[C@@H](O)[C@H]2O)c(=O)[nH]1 [UTP],green fluorescence response of Fluo-4 labeled CHO-M1 cells to different concentrations of test compound,[1],dose dependent response
same,red fluorescence response of Fura-red labeled THP-1 cells to different concentrations of test compound,THP-1 cell line,dose dependent response
